For the assay, the system named is interleukin 8 (IL-8). Nature of the assay: IL-8 ELISA on supernatant of TNF alpha-challenged primary epidermal keratinocytes pre-treated with actives. Type of assay: cell-based, human. Particulars: 24 h pre-treatment, then 10 ng/ml TNF alpha 24 h. As for the experimental part: An in-vitro model has been developed to investigate the impact of an inflammatory stimulus on epidmeral keratinocytes, in which: • a. Cells are grown in 24-well (2.0 cm^2) plates. • b. The cells are pre-treated with active ingredient of interest for 24 hours then challenged with an inflammatory stimulus, 10 ng/ml tumour necrosis factor alpha (TNFa) in addition to the active ingredient, for a further 24 hours. • c. Cell culture supernatant and cell lysates were harvested at 24 hours (t24) post-TNFa treatment. • d. All cell culture supernatant was assayed for IL-8 as a measure of inflammatory response and cell culture lysate was assayed for total protein (BCA), as a measure of cytotoxicity.
Primary human epidermal keratinocyte cells were cultured and passaged in fully supplemented KGM-Gold media (Lonza) with 70 μM calcium added. Cells were routinely plated out in 24-well tissue culture dishes, at a seeding density of ˜50,000 cells/well in 1 ml medium/well for 24 hours, and incubated at 37° C. in 5% CO2.
Test solutions were prepared in KGM-Gold media without supplemented hydrocortisone and antibiotic. Media was removed from the cells and test solutions were added for 24 hours. The epidermal keratinocytes were then stimulated with an inflammatory challenge for 24 hours using 10 ng/ml TNFa in the presence of the test solutions. The treated supernatant (cell culture supernatant) was removed and stored at −20° C. prior to IL-8 analysis.
The epidermal keratinocytes were washed with 1 ml of Dulbecco's phosphated buffer solution (PBS) and 250 μl of ice cold lysis buffer (1% NP-40, 0.1% sodium deoxycholate, 0.1% sodium dodecyl sulphate, 6 mM sodium chloride and 0.05 M Tris at pH 7.6) containing protease inhibitor cocktail (Roche, Complete™ mini tablets 1 836 170) was added. The lysates were clarified by scraping the samples with a 1 ml syringe plunger and passing through an Acrowell™ filter plate (Pall) using an Acroprep™ vacuum manifold (Pall) into a 96 well microwell plate (Sterilin). The clarified lysates were stored at −20° C. until total protein estimation.
The total protein concentration of each clarified cell lysate was measured using the Pierce BCA protein assay kit so that the response to effect of the test substances could be normalised to ug protein. A set of eight standard solutions ranging from 0 to 1200 μg/ml protein was prepared from the supplied 2 mg/ml bovine serum albumin (BSA) stock solution. 10 μl of standard or cell lysate was added to duplicate wells of a flat-bottomed 96-well plate. The reagent solution was prepared according to the kit instructions from 50 parts reagent A and 1 part reagent B. 200 μl of the final reagent was added to each well. The plate was mixed, covered and incubated at 37° C. for 30 minutes and absorbance read at 562 nm. A protein standard curve was constructed and used to determine the protein concentration of each cell lysate.
The IL-8 concentration of each cell culture supernatant was assayed using the DuoSet Human IL-8 ELISA assay (R&D Systems DY208) according to the manufacturer's instructions. The IL-8 capture antibody was bound to the microtitre plate (Greiner) overnight at room temperature in phosphate buffered saline and removed by washing three times was wash buffer (0.05% Tween 20 in PBS) on an automatic plate washer. The plate was blocked with 300 μl of 1% bovine serum albumin (BSA) in phosphate buffered saline for 1 hour at room temperature and washed 3 times in wash buffer. Seven IL-8 standards were prepared in reagent diluent (0.1% BSA, 0.05% Tween 20 in PBS) at concentrations ranging from […]. 100 μl of cell culture supernatant or standard was added to duplicate wells and incubated at room temperature for 2 hours. The plate was washed 3 times with wash buffer before 100 μl of IL-8 detection antibody diluted in reagent diluent was added and incubated for 2 hours at room temperature. […]
(An ELISA detects its analyte on a solid surface through an enzyme-linked reagent.)

Molecules are shown by their SMILES.

Turning to `CC(C)[C@@H](C)/C=C/[C@@H](C)[C@H]1CC[C@H]2[C@@H]3CC=C4C[C@@H](O)CC[C@]4(C)[C@H]3CC[C@]12C` [Brassicasterol], the “IL-8 (pg/μg protein)” value is given as 3.394 pg/μg protein (sterol alone 1 uM), 4.448 pg/μg protein (sterol alone 5 uM) and 4.862 pg/μg protein (sterol alone 10 uM).

As for `CC(C)=CCC[C@@H](C)[C@H]1CC[C@H]2[C@@H]3CC=C4C[C@@H](O)CC[C@]4(C)[C@H]3CC[C@]12C` [Desmosterol], the “IL-8 (pg/μg protein)” value is, setting by setting: (sterol alone 1 uM) 4.756 pg/μg protein; (sterol alone 5 uM) 4.799 pg/μg protein; (sterol alone 10 uM) 4.711 pg/μg protein.

Consider `O=c1c(O)c(-c2cc(O)c(O)c(O)c2)oc2cc(O)cc(O)c12` [Myricetin], for which the “IL-8 (pg/μg protein)” value is, setting by setting: (myricetin alone 0.5 ug/ml) 3.874 pg/μg protein; (myricetin alone 1 ug/ml) 2.741 pg/μg protein; (myricetin alone 2.5 ug/ml) 1.784 pg/μg protein.

With `CC[C@H](/C=C/[C@@H](C)[C@H]1CC[C@H]2[C@@H]3CC=C4C[C@@H](O)CC[C@]4(C)[C@H]3CC[C@]12C)C(C)C` [Stigmasterol], the “IL-8 (pg/μg protein)” value (sterol alone 1 uM) is 4.638 pg/μg protein, the “IL-8 (pg/μg protein)” value (sterol alone 5 uM) worked out at 3.87 pg/μg protein and the “IL-8 (pg/μg protein)” value (sterol alone 10 uM) was 4.964 pg/μg protein.

The values above are taken from patent US10406091B2, “Skin anti-ageing composition” (Conopco, Inc., priority 2011, dated 2019).
